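Step 1: Grow cells in 96-well plates. Step 2: Expose to compound for 48 hours at 5 concentrations. Step 3: Interpolate endpoints linearly; if unreached, use highest concentration. TGI marks complete inhibition of growth.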
Legend:
Experiment in all cases: DTP human tumour cell line panel, 48 h
[1] = test system: ACHN renal
[2] = test system: HT29 colon
[3] = test system: MDA-MB-231 breast
[4] = test system: K-562 leukemia
[5] = test system: TK-10 renal
[6] = test system: NCI-H23 lung
[7] = test system: OVCAR-4 ovarian
[8] = test system: HCC-2998 colon
[9] = test system: MOLT-4 leukemia
[10] = test system: MALME-3M melanoma
[11] = test system: A549 NSCLC
[12] = test system: NCI-H460 lung
[13] = test system: SK-OV-3 ovarian
[14] = test system: CCRF-CEM leukemia
[15] = test system: HCT-15 colon
[16] = test system: BT-549 breast
[17] = test system: SK-MEL-5 melanoma
[18] = test system: U251 CNS
[19] = test system: RPMI-8226 leukemia
[20] = test system: IGROV1 ovarian
[21] = test system: SNB-19 CNS
[22] = test system: KM12 colon
[23] = test system: SF-268 CNS
[24] = test system: SR leukemia
[25] = test system: MCF7 breast
[26] = test system: EKVX NSCLC
[27] = test system: HOP-92 NSCLC
[28] = test system: T-47D breast
[29] = test system: HL-60(TB) leukemia
[30] = test system: SN12C renal
[31] = test system: LOX IMVI melanoma
[32] = test system: UACC-62 melanoma
[33] = test system: MDA-N
[34] = test system: DU-145 prostate
[35] = test system: SW-620 colon
[36] = test system: SF-295 CNS
[37] = test system: UO-31 renal
[38] = test system: HOP-62 NSCLC
[39] = test system: OVCAR-8 ovarian
[40] = test system: UACC-257 melanoma
[41] = test system: COLO 205 colon
[42] = test system: SK-MEL-2 melanoma
[43] = test system: SK-MEL-28 melanoma
[44] = test system: A498 renal
[45] = test system: RXF 393 renal
[46] = test system: NCI-H522 lung
[47] = test system: NCI/ADR-RES ovarian
[48] = test system: HS 578T breast
[49] = test system: CAKI-1 renal
[50] = test system: 786-0 renal
[51] = test system: HCT-116 colon
[52] = test system: M14 melanoma
[53] = test system: OVCAR-5 ovarian
[54] = test system: MDA-MB-435
[55] = test system: OVCAR-3 ovarian
[56] = test system: SNB-75 CNS
[57] = test system: PC-3 prostate
[58] = test system: NCI-H226 lung

Compound: COc1cc2c(cc1OC)C1CN3CCCC3C(O)C1c1cc(OC)c(OC)cc1-2 (stereo not given)
- TGI [1]: > 100 µM
- TGI [2]: > 100 µM
- TGI [3]: > 100 µM
- TGI [4]: > 100 µM
- TGI [5]: > 100 µM
- TGI [6]: > 100 µM
- TGI [7]: > 100 µM
- TGI [8]: > 100 µM
- TGI [9]: > 100 µM
- TGI [10]: > 100 µM
- TGI [11]: > 100 µM
- TGI [12]: > 100 µM
- TGI [13]: > 100 µM
- TGI [14]: > 100 µM
- TGI [15]: > 100 µM
- TGI [16]: > 100 µM
- TGI [17]: > 100 µM
- TGI [18]: > 100 µM
- TGI [19]: > 100 µM
- TGI [20]: > 100 µM
- TGI [21]: > 100 µM
- TGI [22]: > 100 µM
- TGI [23]: > 100 µM
- TGI [24]: > 100 µM
- TGI [25]: > 100 µM
- TGI [26]: > 100 µM
- TGI [27]: > 100 µM
- TGI [28]: > 100 µM
- TGI [29]: > 100 µM
- TGI [30]: > 100 µM
- TGI [31]: > 100 µM
- TGI [32]: > 100 µM
- TGI [33]: > 100 µM
- TGI [34]: > 100 µM
- TGI [35]: > 100 µM
- TGI [36]: > 100 µM
- TGI [37]: > 100 µM
- TGI [38]: > 100 µM
- TGI [39]: > 100 µM
- TGI [40]: > 100 µM
- TGI [41]: > 100 µM
- TGI [42]: > 100 µM
- TGI [43]: > 100 µM
- TGI [44]: > 100 µM
- TGI [45]: > 100 µM
- TGI [46]: > 100 µM
- TGI [47]: > 100 µM
- TGI [48]: > 100 µM
- TGI [49]: > 100 µM
- TGI [50]: > 100 µM
- TGI [51]: > 100 µM
- TGI [52]: > 100 µM
- TGI [53]: > 100 µM
- TGI [54]: > 100 µM

Compound: COc1ccc(/C=N/NS(=O)(=O)c2ccc(/C=C3\NC(=O)NC3=O)cc2)cc1
- TGI [1]: > 100 µM
- TGI [2]: > 100 µM
- TGI [3]: > 100 µM
- TGI [4]: > 100 µM
- TGI [5]: > 100 µM
- TGI [6]: > 100 µM
- TGI [7]: > 100 µM
- TGI [8]: > 100 µM
- TGI [9]: > 100 µM
- TGI [10]: > 100 µM
- TGI [11]: > 100 µM
- TGI [12]: > 100 µM
- TGI [13]: > 100 µM
- TGI [14]: > 100 µM
- TGI [15]: > 100 µM
- TGI [16]: > 100 µM
- TGI [17]: > 100 µM
- TGI [18]: > 100 µM
- TGI [19]: > 100 µM
- TGI [20]: > 100 µM
- TGI [21]: > 100 µM
- TGI [22]: > 100 µM
- TGI [23]: 86.9 µM
- TGI [55]: > 100 µM
- TGI [25]: > 100 µM
- TGI [56]: 77.9 µM
- TGI [26]: > 100 µM
- TGI [57]: > 100 µM
- TGI [27]: > 100 µM
- TGI [28]: > 100 µM
- TGI [29]: > 100 µM
- TGI [30]: > 100 µM
- TGI [31]: > 100 µM
- TGI [32]: > 100 µM
- TGI [33]: > 100 µM
- TGI [34]: > 100 µM
- TGI [35]: > 100 µM
- TGI [36]: > 100 µM
- TGI [37]: > 100 µM
- TGI [38]: > 100 µM
- TGI [39]: > 100 µM
- TGI [40]: > 100 µM
- TGI [41]: > 100 µM
- TGI [58]: > 100 µM
- TGI [42]: > 100 µM
- TGI [43]: > 100 µM
- TGI [44]: > 100 µM
- TGI [45]: > 100 µM
- TGI [47]: > 100 µM
- TGI [48]: > 100 µM
- TGI [49]: > 100 µM
- TGI [50]: > 100 µM
- TGI [51]: > 100 µM
- TGI [52]: > 100 µM
- TGI [53]: > 100 µM
- TGI [54]: > 100 µM
